Measured values taken from ChEMBL document CHEMBL1795272, “Rhamnetin production based on the rational design of the poplar O-methyltransferase enzyme and its biological activities” (Bioorg Med Chem Lett, 2011).
Activity calls are given as the source filed them. No cut-off for these calls is given here.

Assays:
[1] = target: MAP kinase p38 (Homo sapiens) (UniProt O15264+Q15759+Q16539+P53778); assay: Increase in p38 kinase phosphorylation in human MDA-MB-231 cells at 20 uM by Western blot analysis; format: cell-based; conditions: TDE = time-dependent effect
MDA-MB-231 [2] = assay: Increase in c-Fos protein expression in human MDA-MB-231 cells at 20 uM within 30 mins by Western blot analysis; format: functional, cell-based
MDA-MB-231 [3] = assay: Increase in Egr-1 protein expression in human MDA-MB-231 cells at 20 uM within 30 mins by Western blot analysis; format: functional, cell-based
[4] = target: Mitogen-activated protein kinase 1 (Homo sapiens) (UniProt P28482); assay: Increase in ERK2 phosphorylation in human MDA-MB-231 cells at 20 uM by Western blot analysis; format: cell-based; conditions: TDE = time-dependent effect
Mitogen-activated protein kinase 1 (Homo sapiens), sequence (P28482 whole entry): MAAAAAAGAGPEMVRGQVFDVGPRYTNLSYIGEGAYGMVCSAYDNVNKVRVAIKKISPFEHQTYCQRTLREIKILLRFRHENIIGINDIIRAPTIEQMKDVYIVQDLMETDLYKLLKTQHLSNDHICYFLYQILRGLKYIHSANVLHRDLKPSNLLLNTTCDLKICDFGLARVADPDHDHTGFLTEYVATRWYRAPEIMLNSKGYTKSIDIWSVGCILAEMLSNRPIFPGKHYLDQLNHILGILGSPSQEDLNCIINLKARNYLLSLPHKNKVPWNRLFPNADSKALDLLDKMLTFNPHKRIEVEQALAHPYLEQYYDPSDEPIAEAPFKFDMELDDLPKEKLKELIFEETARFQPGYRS

MDA-MB-231 [5] = assay: Effect on JNK2 protein level in human MDA-MB-231 cells at 20 uM up to 120 mins by Western blot analysis; format: functional, cell-based
MDA-MB-231 [6] = assay: Effect on ERK1 protein level in human MDA-MB-231 cells at 20 uM up to 120 mins by Western blot analysis; format: functional, cell-based
[7] = target: Mitogen-activated protein kinase 3 (Homo sapiens) (UniProt P27361); assay: Increase in ERK1 phosphorylation in human MDA-MB-231 cells at 20 uM by Western blot analysis; format: cell-based; conditions: TDE = time-dependent effect
Mitogen-activated protein kinase 3 (Homo sapiens), sequence (P27361 whole entry): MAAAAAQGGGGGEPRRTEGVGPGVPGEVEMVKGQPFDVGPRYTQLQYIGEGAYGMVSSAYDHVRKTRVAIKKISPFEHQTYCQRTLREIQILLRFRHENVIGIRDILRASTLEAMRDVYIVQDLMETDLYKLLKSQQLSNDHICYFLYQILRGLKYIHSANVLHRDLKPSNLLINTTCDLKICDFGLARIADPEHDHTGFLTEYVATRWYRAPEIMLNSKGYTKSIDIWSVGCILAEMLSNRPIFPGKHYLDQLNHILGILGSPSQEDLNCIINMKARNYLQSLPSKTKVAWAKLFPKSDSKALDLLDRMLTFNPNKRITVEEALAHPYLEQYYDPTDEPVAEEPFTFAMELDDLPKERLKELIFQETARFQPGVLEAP

[8] = target: Mitogen-activated protein kinase 8 (Homo sapiens) (UniProt P45983); assay: Increase in JNK1 phosphorylation in human MDA-MB-231 cells at 20 uM by Western blot analysis; format: cell-based; conditions: TDE = time-dependent effect
Mitogen-activated protein kinase 8 (Homo sapiens), sequence (P45983 whole entry): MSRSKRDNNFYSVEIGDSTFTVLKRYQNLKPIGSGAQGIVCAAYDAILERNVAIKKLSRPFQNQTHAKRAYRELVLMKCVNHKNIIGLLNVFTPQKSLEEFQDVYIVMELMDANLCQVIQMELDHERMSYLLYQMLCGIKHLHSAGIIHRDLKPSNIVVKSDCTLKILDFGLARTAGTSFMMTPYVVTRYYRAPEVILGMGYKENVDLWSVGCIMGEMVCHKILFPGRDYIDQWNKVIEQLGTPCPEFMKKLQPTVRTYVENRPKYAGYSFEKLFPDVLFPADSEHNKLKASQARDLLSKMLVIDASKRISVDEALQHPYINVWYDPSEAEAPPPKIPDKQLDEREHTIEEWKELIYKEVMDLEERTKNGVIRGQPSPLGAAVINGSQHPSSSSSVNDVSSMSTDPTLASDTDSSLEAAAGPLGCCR

MDA-MB-231 [9] = assay: Induction of apoptosis in human MDA-MB-231 cells assessed as cleaved caspase-7 accumulation at 20 uM after 12 hrs by Western blot analysis; format: functional, cell-based
[10] = Stability of the compound in DMEM media assessed as compound degradation at 25 ppm after 3 hrs by HPLC; format: physicochemical; conditions: read-out: Activity
MDA-MB-231 [11] = assay: Effect on JNK1 protein level in human MDA-MB-231 cells at 20 uM up to 120 mins by Western blot analysis; format: functional, cell-based
MDA-MB-231 [12] = assay: Effect on ERK2 protein level in human MDA-MB-231 cells at 20 uM up to 120 mins by Western blot analysis; format: functional, cell-based
[13] = target: Mitogen-activated protein kinase 9 (Homo sapiens) (UniProt P45984); assay: Increase in JNK2 phosphorylation in human MDA-MB-231 cells at 20 uM by Western blot analysis; format: cell-based; conditions: TDE = time-dependent effect
Mitogen-activated protein kinase 9 (Homo sapiens), sequence (P45984 whole entry, looked up): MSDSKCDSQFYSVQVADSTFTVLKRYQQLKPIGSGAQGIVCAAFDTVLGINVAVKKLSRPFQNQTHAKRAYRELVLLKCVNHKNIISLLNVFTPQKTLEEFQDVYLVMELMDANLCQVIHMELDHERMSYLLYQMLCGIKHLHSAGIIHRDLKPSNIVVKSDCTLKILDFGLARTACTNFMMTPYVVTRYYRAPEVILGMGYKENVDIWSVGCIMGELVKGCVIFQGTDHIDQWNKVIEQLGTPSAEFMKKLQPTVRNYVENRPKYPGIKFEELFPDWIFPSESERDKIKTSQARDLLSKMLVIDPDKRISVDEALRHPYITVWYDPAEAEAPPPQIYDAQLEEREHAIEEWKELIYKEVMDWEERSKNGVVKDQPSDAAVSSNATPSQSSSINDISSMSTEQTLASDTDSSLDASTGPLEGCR

MDA-MB-231 [14] = assay: Effect on p38 kinase protein level in human MDA-MB-231 cells at 20 uM up to 120 mins by Western blot analysis; format: functional, cell-based

| Compound | Activity [1] | Activity (MDA-MB-231 [2]) | Activity (MDA-MB-231 [3]) | Activity [4] | Activity (MDA-MB-231 [5]) | Activity (MDA-MB-231 [6]) | Activity [7] | Activity [8] | Activity (MDA-MB-231 [9]) | degraded at 3 h, 25 ppm [10] | Activity (MDA-MB-231 [11]) | Activity (MDA-MB-231 [12]) | Activity [13] | Activity (MDA-MB-231 [14]) |
| --- | --- | --- | --- | --- | --- | --- | --- | --- | --- | --- | --- | --- | --- | --- |
| O=c1c(O)c(-c2ccc(O)c(O)c2)oc2cc(O)cc(O)c12 [QUERCETIN] | tde | Active | Active | tde | inactive | inactive | tde | tde | Active | 60% | inactive | inactive | tde | inactive |
| COc1cc(O)c2c(=O)c(O)c(-c3ccc(O)c(O)c3)oc2c1 [RHAMNETIN] | tde | Active | Active | tde | inactive | inactive | tde | tde | Active | 4% | inactive | inactive | tde | inactive |
